PMC6225123, “Optimization of Aminoimidazole Derivatives as Src Family Kinase Inhibitors” (Molecules : A Journal of Synthetic Chemistry and Natural …, 2018)
Like-named read-outs stand apart in the source and are kept apart here.

Tests used:
[1] = target: active human recombinant Src (Homo sapiens, UniProt P12931); assay: Z'-LYTE kinase assay (FRET), primary screen; format: biochemical; conditions: isolated enzyme, mean ± SD of two independent experiments
Method: (§3) Enzymatic assays to determine the kinase inhibitory activity of NCEs were performed using an automatic liquid-handling device (Microlab STAR Hamilton) and Z’-LYTE Kinase Assay Platform, a fluorescence resonance energy transfer (FRET)-based assay platform compatible with high-throughput screening (HTS) applications. […] The assay procedure was carried out according to the supplier’s indications. […] Final results have been expressed as percent inhibition, and IC50 values were calculated by non-linear curve fitting using GraphPad Prism software (version 6 for Windows). The inter-experimental variability of IC50 values resulted within accepted limits of ±0.5 log units.

Fyn = target: T1, Fyn (Homo sapiens, UniProt P06241); assay: Z'-LYTE kinase assay (FRET), SFK profiling; format: biochemical; conditions: isolated enzyme, mean ± SD of two independent experiments
T1 construct: (Fyn, LynA, and Yes1, all human recombinant full-length proteins)
Method: as §3

LynA = target: T2, LynA (Homo sapiens, UniProt P07948); assay: Z'-LYTE kinase assay (FRET), SFK profiling; format: biochemical; conditions: isolated enzyme, mean ± SD of two independent experiments; read-out: Lyn IC50
T2 construct: (Fyn, LynA, and Yes1, all human recombinant full-length proteins)
Method: as §3

Yes1 = target: T3, Yes1 (Homo sapiens, UniProt P07947); assay: Z'-LYTE kinase assay (FRET), SFK profiling; format: biochemical; conditions: isolated enzyme, mean ± SD of two independent experiments; read-out: Yes IC50
T3 construct: (Fyn, LynA, and Yes1, all human recombinant full-length proteins)
Method: as §3

[2] = system: SH-SY5Y neuroblastoma cell line; assay: Antiproliferative assay, viable cell count after 72 h; format: cell-based, human; conditions: for increased activity compared to the hit compound 2 on SH-SY5Y cells: 72 h, ratio of IC50 values; for IC50: Homo sapiens, 72 h incubation, read-out: IC50 antiproliferative activity on SH-SY5Y cells
Method: (§1) Starting from these promising results in enzymatic assays, we decided to test NCEs 4 on K562 CML and SH-SY5Y NB cell lines, to evaluate if they are endowed with an increased antiproliferative activity compared with the hit compound 2. A hyperactivation of SFKs has been detected in both K562 and SH-SY5Y cell lines. Cells were treated with increasing concentrations of compounds and cell proliferation was measured by counting viable cells after 72 h of incubation. […] The activity of these compounds could be due not only to Src inhibition, but also to their effect on Fyn and Lyn, both involved in NB development.
(§2) In vitro experiments were carried out using human neuroblastoma cell line SH-SY5Y, human glioblastoma cell line U-87, and human erythroleukemia cell line K-562. Cell lines were obtained from American Tissue Culture Collection (ATCC, SH-SY5Y CRL-2266; U-87 HTB-14; K-562 CCL-243). K-562 cells were cultured in RPMI medium with 10% FCS. SH-SY5Y and U-87 cells were cultured in DMEM medium with 10% FCS. In order to determine antiproliferative effect of NCE compounds cells were seeded at density of 5 × 10^4 cells/mL (K-562) or 10 × 10^4 cells/cm^2 (SH-SY5Y, U-87) and treated with increasing concentrations of NCE compounds. Control cells were treated with the vehicle of the experimental point containing the highest percentage of DMSO. Cell cultures were maintained at 37 °C in 5% v/v CO2 for 72 h. Cell number and vitality were evaluated on cell suspension using the automatic cell counter NucleoCounter® (Chemometec, Denmark). Results from the NucleoCounter represented either total or non-viable cell concentration, depending on the sample preparation indicated by the manufacturer. Each experiment was performed at least three times and results were expressed as mean and standard deviation.

K562 CML cell line [3] = assay: as above; format: cell-based; conditions: Homo sapiens; K562, 72 h incubation; read-out: IC50 antiproliferative activity on K562 cells
Method: as §1
In vitro experiments were carried out using human neuroblastoma cell line SH-SY5Y, human glioblastoma cell line U-87, and human erythroleukemia cell line K-562. Cell lines were obtained from American Tissue Culture Collection (ATCC, SH-SY5Y CRL-2266; U-87 HTB-14; K-562 CCL-243). K-562 cells were cultured in RPMI medium with 10% FCS. SH-SY5Y and U-87 cells were cultured in DMEM medium with 10% FCS. […] Cell number and vitality were evaluated on cell suspension using the automatic cell counter NucleoCounter® (Chemometec, Denmark). […] Each experiment was performed at least three times and results were expressed as mean and standard deviation.

[4] = system: U87 glioblastoma multiforme cells; assay: as above; format: cell-based; conditions: Homo sapiens; U87, 72 h incubation
Method: A possible explanation could be the multidrug resistance mechanisms that GBM cells usually carry: an example is the overexpression of membrane channels (ABCB1) that are able to pump different kind of drugs out of the cells. In Supplementary Materials, Figure S1, the activity of other NCEs on U87 GBM cell line are reported.
as §2, with “Results from the NucleoCounter represented either total or non-viable cell concentration, depending on the sample preparation indicated by the manufacturer.” left out

Jak2 = system: Jak2; parameters: method as in PMID 24359159; conditions: cited from earlier work
[5] = system: SH-SY5Y neuroblastoma cell line; parameters: method as in PMID 26514807; conditions: previous work; cited from earlier work
K562 CML cell line [6] = system: K562 CML cell line; parameters: method as in PMID 26514807; conditions: previous work; cited from earlier work

T3 sequence (P07947 whole entry): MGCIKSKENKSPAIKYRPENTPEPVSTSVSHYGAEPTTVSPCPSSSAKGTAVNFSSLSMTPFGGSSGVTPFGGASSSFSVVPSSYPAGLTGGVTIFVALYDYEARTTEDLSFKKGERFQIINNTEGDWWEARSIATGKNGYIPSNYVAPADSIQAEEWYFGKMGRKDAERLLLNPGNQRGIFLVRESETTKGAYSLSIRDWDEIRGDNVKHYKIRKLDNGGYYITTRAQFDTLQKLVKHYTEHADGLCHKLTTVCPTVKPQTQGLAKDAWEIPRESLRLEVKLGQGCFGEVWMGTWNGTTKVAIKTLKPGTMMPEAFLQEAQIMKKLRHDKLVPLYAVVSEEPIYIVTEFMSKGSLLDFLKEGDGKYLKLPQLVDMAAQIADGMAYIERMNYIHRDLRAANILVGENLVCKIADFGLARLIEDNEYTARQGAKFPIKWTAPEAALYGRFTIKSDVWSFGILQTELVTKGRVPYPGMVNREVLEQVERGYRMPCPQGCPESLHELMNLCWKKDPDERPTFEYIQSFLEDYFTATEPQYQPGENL
T1 sequence (P06241 whole entry): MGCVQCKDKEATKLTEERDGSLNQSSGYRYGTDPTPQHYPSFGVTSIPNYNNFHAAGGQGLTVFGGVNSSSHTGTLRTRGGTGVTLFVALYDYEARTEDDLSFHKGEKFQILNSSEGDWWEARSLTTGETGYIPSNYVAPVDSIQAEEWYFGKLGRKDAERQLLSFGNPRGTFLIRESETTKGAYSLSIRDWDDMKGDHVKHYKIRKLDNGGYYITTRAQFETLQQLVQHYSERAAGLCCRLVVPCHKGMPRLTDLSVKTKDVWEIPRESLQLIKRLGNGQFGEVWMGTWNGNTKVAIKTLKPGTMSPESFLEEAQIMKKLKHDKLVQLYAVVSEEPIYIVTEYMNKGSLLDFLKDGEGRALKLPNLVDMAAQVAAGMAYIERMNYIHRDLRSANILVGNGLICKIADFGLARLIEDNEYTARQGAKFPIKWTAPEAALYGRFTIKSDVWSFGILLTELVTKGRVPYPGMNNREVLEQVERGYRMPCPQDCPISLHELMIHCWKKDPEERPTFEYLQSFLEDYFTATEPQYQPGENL
T2 sequence (P07948 whole entry): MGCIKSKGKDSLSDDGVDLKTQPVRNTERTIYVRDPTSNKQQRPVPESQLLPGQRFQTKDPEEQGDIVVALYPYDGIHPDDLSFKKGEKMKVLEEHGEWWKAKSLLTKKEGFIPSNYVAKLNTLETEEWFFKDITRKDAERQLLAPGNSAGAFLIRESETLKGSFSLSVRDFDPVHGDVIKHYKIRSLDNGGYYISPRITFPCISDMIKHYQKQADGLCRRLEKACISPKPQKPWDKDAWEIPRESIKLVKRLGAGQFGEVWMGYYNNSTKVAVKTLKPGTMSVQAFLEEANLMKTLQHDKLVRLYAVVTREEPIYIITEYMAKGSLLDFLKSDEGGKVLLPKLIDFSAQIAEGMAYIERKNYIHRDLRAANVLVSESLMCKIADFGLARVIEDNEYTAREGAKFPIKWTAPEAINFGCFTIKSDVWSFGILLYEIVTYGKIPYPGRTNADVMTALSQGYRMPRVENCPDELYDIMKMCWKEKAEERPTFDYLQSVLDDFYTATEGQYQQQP
Chain of active human recombinant Src (P12931 whole entry): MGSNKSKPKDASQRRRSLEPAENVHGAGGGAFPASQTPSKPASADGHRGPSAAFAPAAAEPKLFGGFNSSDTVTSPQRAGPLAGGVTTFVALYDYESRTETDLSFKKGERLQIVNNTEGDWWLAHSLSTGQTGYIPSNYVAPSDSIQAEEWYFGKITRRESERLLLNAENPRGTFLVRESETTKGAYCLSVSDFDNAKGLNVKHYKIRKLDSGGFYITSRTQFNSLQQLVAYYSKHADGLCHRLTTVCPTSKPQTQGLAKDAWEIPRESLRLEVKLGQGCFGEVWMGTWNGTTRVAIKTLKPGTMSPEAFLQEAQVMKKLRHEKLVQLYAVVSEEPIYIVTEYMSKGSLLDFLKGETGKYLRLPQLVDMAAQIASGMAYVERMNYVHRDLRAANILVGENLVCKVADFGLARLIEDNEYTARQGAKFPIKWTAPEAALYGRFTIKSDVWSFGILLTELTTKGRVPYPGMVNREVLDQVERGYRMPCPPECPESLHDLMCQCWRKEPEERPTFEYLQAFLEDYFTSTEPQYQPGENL

Row | Compound | IC50 [1] [nM] | IC50 (Fyn) [nM] | IC50 (LynA) [nM] | IC50 (Yes1) [nM] | melting point [°C] | increased activity compared to the hit compound 2 on SH-SY5Y cells [2] | IC50 [2] [nM] | IC50 (K562 CML cell line [3]) [nM] | IC50 [4] [nM] | IC50 (Jak2) [nM] | IC50 [5] [nM] | IC50 (K562 CML cell line [6]) [nM]
1 | COc1cccc(CCn2cnc(Nc3cc(N4CCN(CCO)CC4)nc(C)n3)c2)c1 [4a, 2-{4-[6-({1-[2-(3-Methoxyphenyl)ethyl]-1H-imidazol-4-yl}amino)-2-methylpyrimidin-4-yl]piperazin-1-yl}ethanol] | 260 ± 23 | 146 ± 30 | 451 ± 13 | 560 ± 40 | – | – | – | – | – | – | – | –
2 | COc1cccc(CCn2cnc(Nc3cc(N4CCN(CC(N)=O)CC4)nc(C)n3)c2)c1 [4b, 2-{4-[6-({1-[2-(3-Methoxyphenyl)ethyl]-1H-imidazol-4-yl}amino)-2-methylpyrimidin-4-yl]piperazin-1-yl}acetamide] | 1480 ± 185 | 1450 ± 768 | 1810 ± 307 | 1840 ± 812 | 198 to 200 | – | – | – | – | – | – | –
3 | COc1ccccc1CCn1cnc(Nc2cc(N3CCN(CCO)CC3)nc(C)n2)c1 [4c, 2-{4-[6-({1-[2-(2-Methoxyphenyl)ethyl]-1H-imidazol-4-yl}amino)-2-methylpyrimidin-4-yl]piperazin-1-yl}ethanol] | 225 ± 8 | 439 ± 45 | 145 ± 31 | 55 ± 9 | – | – | – | – | – | – | – | –
4 | COc1ccccc1CCn1cnc(Nc2cc(N3CCN(CC(N)=O)CC3)nc(C)n2)c1 [4d, 2-{4-[6-({1-[2-(2-Methoxyphenyl)ethyl]-1H-imidazol-4-yl}amino)-2-methylpyrimidin-4-yl]piperazin-1-yl}acetamide] | 1530 ± 44 | 1390 ± 93 | 1200 ± 189 | – | – | – | – | – | – | – | – | –
5 | Cc1nc(Nc2cn(CCc3ccccc3O)cn2)cc(N2CCN(CCO)CC2)n1 [4e, 2-{2-[4-({6-[4-(2-Hydroxyethyl)piperazin-1-yl]-2-methylpyrimidin-4-yl}amino)-1H-imidazol-1-yl]ethyl}phenol] | 59 ± 5 | 73 ± 5 | 17 ± 0.54 | 11 ± 0.6 | – | – | – | – | – | – | – | –
6 | Cc1nc(Nc2cn(CCc3ccccc3O)cn2)cc(N2CCNCC2)n1 [4f, 2-(2-{4-[(2-Methyl-6-piperazin-1-ylpyrimidin-4-yl)amino]-1H-imidazol-1-yl}ethyl)phenol] | 56 ± 5 | 50 ± 4 | 51 ± 3 | 3 ± 1 | 193 to 196 | – | – | – | – | – | – | –
7 | Cc1nc(Nc2cn(CCc3ccccc3O)cn2)cc(N2CCN(CC(N)=O)CC2)n1 [4g, 2-{4-[6-({1-[2-(2-Hydroxyphenyl)ethyl]-1H-imidazol-4-yl}amino)-2-methylpyrimidin-4-yl]piperazin-1-yl}acetamide] | 40 ± 5 | 40 ± 5 | 19 ± 2 | 15 ± 4 | 160 to 163 | – | – | – | – | – | – | –
8 | Cc1nc(Nc2cn(CCc3cccc(O)c3)cn2)cc(N2CCN(CCO)CC2)n1 [4h, 3-{2-[4-({6-[4-(2-Hydroxyethyl)piperazin-1-yl]-2-methylpyrimidin-4-yl}amino)-1H-imidazol-1-yl]ethyl}phenol] | 93 ± 19 | 10 ± 0.4 | 20 ± 0.8 | 3 ± 1 | 150 to 155 | – | – | – | – | – | – | –
9 | Cc1nc(Nc2cn(CCc3cccc(O)c3)cn2)cc(N2CCNCC2)n1 [4i, 3-(2-{4-[(2-Methyl-6-piperazin-1-ylpyrimidin-4-yl)amino]-1H-imidazol-1-yl}ethyl)phenol] | 83 ± 18 | 10 ± 0.4 | 27 ± 1 | 3 ± 0.8 | 193 to 196 | – | – | – | – | – | – | –
10 | Cc1nc(Nc2cn(CCc3cccc(O)c3)cn2)cc(N2CCN(CC(N)=O)CC2)n1 [4j, 2-{4-[6-({1-[2-(3-Hydroxyphenyl)ethyl]-1H-imidazol-4-yl}amino)-2-methylpyrimidin-4-yl]piperazin-1-yl}acetamide] | 40 ± 3 | 12 ± 2 | 10 ± 1.2 | 3 ± 0.7 | – | – | – | – | – | – | – | –
11 | COC(=O)CN1CCN(c2cc(Nc3cn(CCc4cccc(O)c4)cn3)nc(C)n2)CC1 [4k, Methyl{4-[6-({1-[2-(3-hydroxyphenyl)ethyl]-1H-imidazol-4-yl}amino)-2-methylpyrimidin-4-yl]piperazin-1-yl}acetate] | 40 ± 2 | 9 ± 1 | 18 ± 1 | 3 ± 1 | 127 to 130 | more than 2 fold | 8600 | 11700 | 12600 | – | – | –
12 | Cc1nc(Nc2cn(CCc3cccc(O)c3)cn2)cc(N2CCN(C(=O)OC(C)(C)C)CC2)n1 [4l, tert-Butyl4-[6-({1-[2-(3-hydroxyphenyl)ethyl]-1H-imidazol-4-yl}amino)-2-methylpyrimidin-4-yl]piperazine-1-carboxylate] | 50 ± 3 | 14 ± 1.5 | 26 ± 3 | 7 ± 0.35 | 127 to 130 | more than 2 fold | 7800 | 18900 | 13300 | – | – | –
13 | Cc1cc(Nc2nc(N[C@@H](C)c3ncc(F)cn3)ncc2Cl)n[nH]1 [AZD1480] | – | – | – | – | – | – | – | – | – | 58 | – | –
14 | Cc1nc(Nc2cn(CCc3ccccc3)cn2)cc(N2CCN(CCO)CC2)n1 [compound 2] | – | – | – | – | – | – | – | – | – | – | 25000 | > 25000
